Experimental data: US7947718B2, “Isoxazole compounds as histamine H3 modulators” (Janssen Pharmaceutica NV, priority 2004, dated 2011)

Each molecule was assayed against T1, human histamine H3 receptor (Homo sapiens, UniProt Q9Y5N1) (assay: [3H]-N-Methylhistamine binding). Details: membranes of H3 receptor-expressing SK-N-MC cells; 0.8 nM [3H]-N-methylhistamine, 60 min at 25° C.
T1 construct: expressed in transfected cells; membranes were used
Procedure: Cells were grown to about 70% to 80% confluence and removed from the plate with trypsin and pelleted in a clinical centrifuge. […] One μg supercoiled H3 receptor cDNA was added to the cells and mixed gently. The voltage for the electroporation was set at 0.25 kV and the capacitance was set at 960 μF. After electroporation the cells were diluted with 10 mL of complete media and were plated onto four 10 cm dishes at the following ratios: 1:20, 1:10, 1:5, and 1:2. […] Colonies that survived selection were grown and tested. SK-N-MC cells were used because they give efficient coupling for inhibition of adenylate cyclase. The clones that gave the most robust inhibition of adenylate cyclase in response to histamine were used for further study.
Cell pellets from histamine H3 receptor-expressing SK-N-MC cells were homogenized in 50 mM TrisHCl/0.5 mM EDTA. Supernatants from an 800 g spin were collected and were recentrifuged at 30,000 g for 30 min. Pellets were re-homogenized in 50 mM Tris/5 mM EDTA (pH 7.4). Membranes were incubated with 0.8 nM [^3H]-N-methylhistamine plus/minus test compounds for 60 min at 25° C. and were harvested by rapid filtration over GF/C glass fiber filters (pretreated with 0.3% polyethylenimine) followed by four washes with buffer. Filters were added to 5 mL of scintillation cocktail, and the signal was then counted on a liquid scintillation counter.

T1 sequence (Q9Y5N1 whole entry): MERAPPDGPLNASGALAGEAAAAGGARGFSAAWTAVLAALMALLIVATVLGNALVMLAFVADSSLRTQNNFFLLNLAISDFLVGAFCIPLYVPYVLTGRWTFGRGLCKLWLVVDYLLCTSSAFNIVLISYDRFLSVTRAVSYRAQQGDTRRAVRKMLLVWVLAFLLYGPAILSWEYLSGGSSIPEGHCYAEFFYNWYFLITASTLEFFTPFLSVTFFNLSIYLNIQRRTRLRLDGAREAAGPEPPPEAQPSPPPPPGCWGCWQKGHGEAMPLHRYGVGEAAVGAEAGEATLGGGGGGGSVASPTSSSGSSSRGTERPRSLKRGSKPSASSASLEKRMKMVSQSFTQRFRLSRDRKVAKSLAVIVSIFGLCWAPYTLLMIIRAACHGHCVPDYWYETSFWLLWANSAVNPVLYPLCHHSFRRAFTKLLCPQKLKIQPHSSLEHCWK

Row | Ki | SMILES
1 | 8 nM | C(#Cc1cccc(CN2CCCCC2)n1)CCN1CCCCC1 [Example 20, 2-(4-Piperidin-1-yl-but-1-ynyl)-6-piperidin-1-ylmethyl-pyridine]
2 | 14 nM | CC(C)N1CCN(C(=O)c2ccc(NCCN3CCOCC3)nc2)CC1 [Example 10, (4-Isopropyl-piperazin-1-yl)-[6-(2-morpholin-4-yl-ethylamino)-pyridin-3-yl]-methanone]
3 | 141 nM | CC(C)N1CCN(C(=O)c2cccnc2NCCN2CCCCC2)CC1 [Example 17, (4-Isopropyl-piperazin-1-yl)-[2-(2-piperidin-1-yl-ethylamino)-pyridin-3-yl]-methanone]
4 | 2 nM | C(#Cc1cncc(CN2CCCCC2)c1)CCN1CCCCC1 [Example 18, 3-(4-Piperidin-1-yl-but-1-ynyl)-5-piperidin-1-ylmethyl-pyridine]
5 | 79 nM | CCOC(=O)N1CCN(c2ccc(C(=O)N3CCN(C(C)C)CC3)cn2)CC1 [Example 14, 4-[5-(4-Isopropyl-piperazine-1-carbonyl)-pyridin-2-yl]-piperazine-1-carboxylic acid ethyl ester]
6 | 3 nM | CC(C)N1CCN(C(=O)c2ccc(N3CCN(C)CC3)nc2)CC1 [Example 15, (4-Isopropyl-piperazin-1-yl)-[6-(4-methyl-piperazin-1-yl)-pyridin-3-yl]-methanone]
7 | 84 nM | CC(C)N1CCN(C(=O)c2ccc(NCCc3ccccn3)nc2)CC1 [Example 11, (4-Isopropyl-piperazin-1-yl)-[6-(2-pyridin-2-yl-ethylamino)-pyridin-3-yl]-methanone]
8 | 5 nM | C(#Cc1ccc(CN2CCCCC2)cn1)CCN1CCCCC1 [Example 8, 2-(4-Piperidin-1-yl-but-1-ynyl)-5-piperidin-1-ylmethyl-pyridine]

Continued, molecule first:

Row | SMILES | Ki
9 | CC(C)N1CCN(C(=O)c2ccc(NCCN3CCCCC3)nc2)CC1 [Example 9, (4-Isopropyl-piperazin-1-yl)-[6-(2-piperidin-1-yl-ethylamino)-pyridin-3-yl]-methanone] | 2 nM
10 | CC(C)N1CCN(C(=O)c2ccnc(NCCN3CCCCC3)c2)CC1 [Example 16, (4-Isopropyl-piperazin-1-yl)-[2-(2-piperidin-1-yl-ethylamino)-pyridin-4-yl]-methanone] | 6 nM
11 | CC(C)N1CCN(C(=O)c2ccc(N3CCN(C(C)C)CC3)nc2)CC1 [Example 13, (4-Isopropyl-piperazin-1-yl)-[6-(4-isopropyl-piperazin-1-yl)-pyridin-3-yl]-methanone] | 4 nM
12 | COCCNCc1cccc(C#CCCN2CCCCC2)n1 [Example 22, (2-Methoxy-ethyl)-[6-(4-piperidin-1-yl-but-1-ynyl)-pyridin-2-ylmethyl]-amine] | 29 nM
13 | C(#Cc1cccc(CN2CCOCC2)n1)CCN1CCCCC1 [Example 21, 4-[6-(4-Piperidin-1-yl-but-1-ynyl)-pyridin-2-ylmethyl]-morpholine] | 38 nM
14 | C(#Cc1cncc(CN2CCOCC2)c1)CCN1CCCCC1 [Example 19, 4-[5-(4-Piperidin-1-yl-but-1-ynyl)-pyridin-3-ylmethyl]-morpholine] | 15 nM
15 | CCN(CC)CCN(C)c1ccc(C(=O)N2CCN(C(C)C)CC2)cn1 [Example 12, {6-[(2-Diethylamino-ethyl)-methyl-amino]-pyridin-3-yl}-(4-isopropyl-piperazin-1-yl)-methanone] | 3 nM
